Patent publication US12201626B2, “Bifunctional compositions for the treatment of cancer” (ARMACEUTICA, INC., priority 2018, dated 2025)

How the values were obtained:
[1] = test system: HL-60 cells; assay: Cell cycle profile and DNA fragmentation, DAPI flow cytometry; type: cell-based, human; conditions: 72 h
Method: (§1) Asynchronous cultures in the exponential growth phase of MDA-MB-231 and HL-60 cells in 24-well plates were treated with several doses of PND. After 72 h of incubation, cells were centrifuged and treated as in the previous section, fixed, permeabilized and stained with a DNA intercalating fluorophore, 4,6-Diamidino-2-phenylindole (DAPI); those three steps were accomplished by adding to the cells 200 μl of a single nuclear isolation medium (NIM)-DAPI solution (Beckman Coulter). The cell suspension was then incubated for an additional 3 min at room temperature in the dark. The controls included in the series of experiments were similar to those described for the above experiments. Approximately, 20,000 events/cells were collected per sample by using a flow cytometer equipped with a solid state 405 nm laser (Gallios; Beckman Coulter). The acquisition and distribution of cell subpopulations within each cell cycle facets were accomplished by utilizing Kaluza flow cytometry software (Beckman Coulter). Additionally, doublets were effectively eliminated by including a single cells gate in the acquisition cell cycle protocol.

[2] = test system: MDA-MB-231 cells; assay: as above; type: cell-based, human; conditions: 72 h
Method: as §1

[3] = test system: plasmid dsDNA (pCMV-dR8.91); assay: DNA mobility-shift assay (agarose gel); type: binding; parameters: DNA mobility shift: unit of the concentration uncertain; conditions: for DNA mobility shift: 100 ng plasmid DNA
Method: Typically, an experimental compound intercalating or binding to double stranded (ds) DNA will increase the molecular mass resulting from forming complexes, decreasing its electrophoretic mobility in an agarose gel, as compared with untreated dsDNA. To explore the potential interaction between PND and dsDNA, a DNA mobility-shift assay was conducted. Each reaction mixture was of 10 μl total volume in PBS pH 7.4. Both PND (Sigma-Aldrich) and quinacrine (Sigma-Aldrich) were tested with three individual concentrations of 1 μM, 0.5 μM or 0.25 μM, respectively. To each reaction mixture, 100 ng of plasmid dsDNA (pCMV-dR8.91; Addgene, Cambridge, MA) was added and the mixture was then incubated for 30 min at 37° C. and stopped by adding 2 μl of 6× gel loading buffer and placed on ice. The potential binding interaction between both PND and quinacrine with dsDNA were analyzed by using 1% (w/v) agarose-gel electrophoresis dissolved in TAE buffer (0.04 M Tris base, 0.04 M acetate and 0.001 M EDTA) pH 8.0. To stain the dsDNA complexes, Ethidium bromide was added to the agarose gel throughout the electrophoresis process at a concentration of 0.5 μg/ml. DNA migration was visualized by utilizing a gel documentation system and pictures were captured by using a UV-light transilluminator (Alpha Innotech, San Leandro, CA). The well-known DNA intercalator fluorescent compound, propidium iodide (PI), was included as positive controls at 1 μg per reaction. As a control, untreated plasmid DNA was included to determine its normal electrophoretic mobility in the gel.

[4] = test system: MDA-MB-231 LM2-LUC4 metastatic breast cancer cells; assay: Metastatic breast cancer tumours in mice, daily gavage; type: in vivo
Method: Treatment began when tumors reached 150-300 mm^3 in size (i.e. Day 1).
In the PND-treated group (n=6), all 6 mice were given 160 mg/kg from Day 1 to Day 9. PND-treated mice numbers 2, 4, and 5 received 160 mg/kg for the entire study, while PND-treated mice numbers 1, 3, and 6 had the largest tumors in the group on Day 9, and had their doses increased on Day 10 to 240 mg/kg, and again on Day 13 to 320 mg/kg. The control mice (n=6) were given placebo throughout the study. The size of each tumor was measured daily. The protocol's endpoint was when a tumor reached 1500 mm^3 in size, triggering the euthanization of the mouse. For the analysis, the level of significance was set at P<0.05.

[5] = test system: malignancy that was metastatic or unresectable; assay: Open-label dose-escalating study of oral PND in terminally-ill human cancer patients
Method: An open-label, dose-escalating study was conducted to assess the longevity and safety of oral pyronaridine tetraphosphate (PND) in five terminally-ill human patients with selected cancers. […] Exclusion criteria included active clinically significant infection, uncontrolled intercurrent illness, neutropenia, and pregnancy.
The PND was obtained from Mangalam Drugs and Organics, Ltd, and the powered PND was encapsulated in size “00” gelatin capsules for oral administration.
Patient were instructed to escalate his or her dose if there was no unacceptable toxicity. […] Study Arm 2 started with a daily dose of 200 mg for 2 weeks, then 400 mg for 2 weeks, then 600 mg onwards. Due to ethical concerns of treating terminally-ill patients, there was no placebo group.
The primary outcomes assessed was the difference between the patient's expected survival length estimated at the time of study entry (estimated at 2-4 weeks for each patient) and his or her actual survival length. The secondary outcomes were malignancy-associated symptom relief, anti-tumor activity, safety, and tolerability of PND.

[6] = concentration-dependent, P<0.0005

COC1=CC=C2Nc3cc(Cl)ccc3C(N=C3C=C(CN4CCCC4)C(=O)C(CN4CCCC4)=C3)=C2N1 [PND, 4-[(7-chloro-2-methoxy-1,5-dihydrobenzo[b][1,5]naphthyridin-10-yl)imino]-2,6-bis(pyrrolidin-1-ylmethyl)cyclohexa-2,5-dien-1-one]
decrease of G0/G1 cell subpopulation [1]: not observed
DNA fragmentation (sub-G0/G1 subpopulation) [1, 6]: significant increase
S and G2/M subpopulations ([1]; vs PBS and untreated controls): decreased
G0/G1 cell subpopulation [2]: significant decrease
DNA fragmentation (sub-G0/G1 subpopulation) [2, 6]: significant increase
S and G2/M subpopulations ([2]; vs PBS and untreated controls): decreased
DNA mobility shift ([3]; 0.5 and 0.25 mM): clear reduction in mobility
DNA mobility shift ([3]; 1 (unit uncertain), 30 min 37° C.): marked reduction of migration
DNA degradation ([3]; fragments smaller than free supercoiled DNA): did not result in DNA degradation
average tumor size ([4]; 160 mg/kg daily gavage, Day 1 to 9, control 750 mm^3, P 0.01): 430 mm^3
PND accumulation on dissection (stomach, intestines, liver) ([4]; 6 PND-treated mice dissected): no sign of PND accumulation
adverse events ([4]; 160-320 mg/kg daily gavage): no reports of negative adverse events except discomfort in walking after Day 15
length of survival versus placebo ([4]; 160-320 mg/kg daily gavage): significant difference in lengths of survival favoring the PND-treated group
weight, eating, grooming ([4]; 160-320 mg/kg daily gavage): no weight loss, no eating disorders, or grooming issues
tumor size versus placebo ([4]; Day 1 to 15, P 0.0001): tumors had grown larger in the placebo group than in the PND-treated group
pigmentation at about Day 20 ([4]; all 6 PND-treated mice): yellowing in the eyes, skin, ears, and paws
most recent CBC and CMP results ([5]; Case 1): within normal reference ranges
study-drug related adverse events ([5]; Case 1, hilar cholangiocarcinoma): no reports of any study-drug related adverse events
survival status ([5]; Case 1, June 2019, start 20 Dec. 2018, expected survival 2-4 weeks): still alive
study-drug related adverse events ([5]; Case 2, lung cancer stage IV): no reports of study-drug related adverse events
survival status ([5]; Case 2, start 22 Jan. 2019): passed away on 22 Feb. 2019
study-drug related adverse events ([5]; Case 3, ovarian cancer stage IV): no reports of study-drug related adverse events
survival status ([5]; Case 3, start 15 Jan. 2019): passed away on 29 Jan. 2019
survival status ([5]; Case 4, breast cancer stage IV, start 20 Jan. 2019): passed away on 15 Feb. 2019
most recent CBC and CMP results ([5]; Case 5): within normal reference ranges
study-drug related adverse events ([5]; Case 5, small cell lung cancer stage IV, cleared within a week): irritation on the skin during the first week of treatment
survival status ([5]; Case 5, June 2019, start 29 Jan. 2019): still alive
maximum tolerated dose ([5]; any patient, up to 500 or 600 mg daily): not reached
tolerability ([5]; five patients, 200-600 mg daily oral): well tolerated
